The experiment deals with T1, human LPAAT-β (Homo sapiens, UniProt O15120).
T1 construct: the full-length human LPAAT-β cDNA was amplified by PCR; poly-histidine tag (N); made in house; host or cells: Sf9 insect cells (baculovirus, pFastBac HTc); the membrane fraction was used as the enzyme
T1 sequence (O15120 24-278): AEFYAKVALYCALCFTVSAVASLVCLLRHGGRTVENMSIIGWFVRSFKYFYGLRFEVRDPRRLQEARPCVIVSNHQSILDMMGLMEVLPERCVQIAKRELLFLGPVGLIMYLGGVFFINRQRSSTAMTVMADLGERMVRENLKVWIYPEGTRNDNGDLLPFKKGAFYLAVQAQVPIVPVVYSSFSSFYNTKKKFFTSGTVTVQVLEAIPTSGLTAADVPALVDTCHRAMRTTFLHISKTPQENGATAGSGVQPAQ
The experiment in a line: LPAAT-β cell-free assay. Format: biochemical. The settings on record: Sf9 cell membrane overexpressing recombinant LPAAT-β. In short, it runs like this:
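Membranes from Sf9 cells expressing His/myc-tagged full-length human LPAAT-β were used in HEPES-saline pH 7.5 with 1 mg/ml BSA. Compound was added from a 200 μM DMSO stock, and reaction with 18:1-CoA and sn-1-18:1 lysoPA (1 mM stocks) ran 25 min at RT. Released CoA was detected with DTNB at 405 nm; a radiometric variant used 200 μM [14C]18:1-CoA and 200 μM lysoPA.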

Results on 30 compounds are retold here after patent publication US7419984B2, “Pyrimidines and uses thereof” (Cell Therapeutics, Inc., priority 2002, dated 2008).

A word on the IC50: it is the concentration needed to halve the response being measured.

Regarding `Nc1nc(Nc2ccc([N+](=O)[O-])cc2)cc(-c2cc(Cl)ccc2Cl)n1` [Example 25, 6-(2,5-Dichloro-phenyl)-N*4*-(4-nitro-phenyl)-pyrimidine-2,4-diamine], the IC50 turned out to be 9 nM.

Regarding `COc1ccc(Cl)cc1-c1nc(N)cc(Nc2ccc(Br)cc2)n1` [Example 36, N-(4-Bromo-phenyl)-2-(5-chloro-2-methoxy-phenyl)-pyrimidine4,6-diamine], the IC50 was determined as 8000 nM.

`CCOc1ccc(Cl)cc1-c1cc(Nc2ccc(F)cc2)nc(N)n1` [Example 94, 6-(5-Chloro-2-ethoxy-phenyl)-N*4*-(4-fluoro-phenyl)-pyrimidine-2,4-diamine]: the IC50 came out at 32 nM.

`COc1ccc(Cl)cc1-c1cc(Nc2ccc3cn[nH]c3c2)nc(N)n1` [Example 3, 6-(5-Chloro-2-methoxy-phenyl)-N*4*-(1H-indazol-6-yl)-pyrimidine-2,4-diamine]: the IC50 was 80 nM.

In the case of `CCOc1ccc(Br)cc1-c1cc(Nc2ccc(C(O)C(F)(F)F)cc2)nc(N)n1` (stereo not drawn) [Example 129, 1-{4-[2-Amino-6-(5-bromo-2-ethoxy-phenyl)-pyrimidin4-ylamino]-phenyl}-2,2,2-trifluoro-ethanol], the IC50 came to 14 nM.

For `Nc1nc(Nc2ccc(CO)cc2)cc(-c2cc(Cl)ccc2Cl)n1` [Example 22, {4-[2-Amino-6-(2,5-dichloro-phenyl)-pyrimidin-4-yl-amino]-phenyl}-methanol], the IC50 was 60 nM.

For `Nc1nc(Nc2ccc(Cl)cc2)cc(-c2cc(Cl)ccc2OCC(F)(F)F)n1` [Example 89, N*4*-(4-Chloro-phenyl)-6-[5-chloro-2-(2,2,2-trifluoro-ethoxy)-phenyl]-pyrimidine-2,4-diamine], the IC50 is 100 nM.

Turning to `CCc1ccc(Cl)cc1-c1cc(Nc2ccc(CCO)cc2)nc(N)n1` [Example 175, 2-{4-[2-amino-6-(5-chloro-2-ethyl-phenyl)-pyrimidin4-ylamino]-phenyl}-ethanol], the IC50 was found to be 100 nM.

On to `COc1ccc(Cl)cc1-c1cc(Nc2ccc3c(c2)OCO3)nc(N)n1` [Example 13, N*4*-Benzo [1,3]dioxol-5-yl-6-(5-chloro-2-methoxy-phenyl)-pyrimidine-2,4-diamine], for which the IC50 stood at 100 nM.

As for `COc1ccc(Nc2cc(-c3cc(Cl)ccc3C)nc(N)n2)cc1` [Example 28, 6-(5-Chloro-2-methyl-phenyl)-N*4*-(4-methoxy-phenyl)-pyrimidine-2,4-diamine], the IC50 was 200 nM.

Consider `CCOc1ccc(I)cc1-c1cc(Nc2ccc(N=[N+]=[N-])cc2)nc(N)n1` [Example 140, N*4*-{4-Azido-phenyl)-6-(2-ethoxy-5-iodo-phenyl)-pyrimidine-2,4-diamine], for which the IC50 worked out at 100 nM.

`CC(=O)c1ccc(Nc2cc(-c3cc(Cl)ccc3C)nc(N)n2)cc1` [Example 123, 1-{4-[2-amino-6-(5-chloro-2-methylphenyl)pyrimidin4-ylamino]phenyl}ethanone]: the IC50 is 150 nM.

Consider `Cc1ccc(Cl)cc1-c1cc(Nc2ccc(CCO)cc2)nc(N)n1` [Example 49, 2-{4-[2-Amino-6-(5-chloro-2-methyl-phenyl)-pyrimidin4-ylamino]-phenyl}-ethanol], for which the IC50 is 49 nM.

On to `Nc1nc(Nc2ccc(Cl)cc2)cc(-c2cc(Cl)ccc2OCC2CCCCC2)n1` [Example 168, 6-(5-Chloro-2-cyclohexylmethoxy-phenyl)-N*4*-(4-chloro-phenyl)-pyrimidine-2,4-diamine], for which the IC50 came out at 16 nM.

`COc1ccc(Cl)cc1-c1cc(Nc2ccc(N)cc2)nc(N)n1` [Example 12, N*4*-(4-Amino-phenyl)-6-(5-chloro-2-methoxy-phenyl)-pyrimidine-2,4-diamine]: the IC50 was found to be 95 nM.

In the case of `COc1ccccc1COc1ccc(Br)cc1-c1cc(Nc2ccc(Cl)cc2)nc(N)n1` [Example 182, 6-[5-Bromo-2-(2-methoxy-benzyloxy)-phenyl]-N*4*-(4-chloro-phenyl)-pyrimidine-2,4-diamine], the IC50 came out at 4 nM.

Take `COc1ccc(Cl)cc1-c1cc(N)nc(Nc2ccc(Cl)cc2)n1` [Example 34, 6-(5-Chloro-2-methoxy-phenyl)-N*2*-(4-chloro-phenyl)-pyrimidine-2,4-diamine]: the IC50 came out at 2000 nM.

As for `COc1ccc(Cl)cc1-c1cc(Nc2ccc(CO)cc2)nc(N)n1` [Example 10, {4-[2-Amino-6-(5-chloro-2-methoxy-phenyl)-pyrimidin4-ylamino]-phenyl}-methanol], the IC50 amounted to 120 nM.

On to `Nc1nc(Nc2ccc(CCO)cc2)cc(-c2cc(Cl)ccc2Cl)n1` [Example 48, 2-{4-[2-Amino-6-(2,5-dichloro-phenyl)-pyrimidin4-ylamino]-phenyl}-ethanol], for which the IC50 was 28 nM.

For `Nc1nc(Nc2ccc(Br)cc2)cc(-c2cc(Br)ccc2OCC(F)(F)F)n1` [Example 91, N*4*-(4-Bromo-phenyl)-6-[5-bromo-2-(2,2,2-trifluoro-ethoxy)-phenyl]-pyrimidine-2,4-diamine], the IC50 was determined as 190 nM.

As for `Nc1nc(Nc2ccc(Cl)cc2)cc(-c2cc(Br)ccc2OCc2ccc(Cl)cc2)n1` [Example 165, 6-[5-Bromo-2-(4-chloro-benzyloxy)-phenyl]-N*4*-(4-chloro-phenyl)-pyrimidine-2,4-diamine], the IC50 amounted to 3 nM.

For the compound `COc1ccc(Br)cc1-c1cc(Nc2ccc(CCO)cc2)nc(N)n1` [Example 151, 2-{4-[2-Amino-6-(5-bromo-2-methoxy-phenyl)-pyrimidin-4-ylamino]-phenyl}-ethanol], the IC50 came out at 55 nM.

As for `CCOc1ccc(Br)cc1-c1cc(Nc2cccc(C(N)=O)c2)nc(N)n1` [Example 138, 3-[2-Amino-6-(5-Bromo-2-ethoxy-phenyl)-pyrimidin-4yl-amino]-benzamide], the IC50 is 950 nM.

For `COc1ccc(Cl)cc1-c1cc(Nc2ccc(Br)cc2)nc(C)n1` [Example 39, [6-(5-Chloro-2-methoxy-phenyl)-2-methyl-pyrimidin-4-yl]-(4-bromo-phenyl)-amine], the IC50 turned out to be 180 nM.

`COc1ccc(Br)cc1-c1cc(Nc2ccc(Br)cc2)nc(N)n1` [Example 162, 6-(5-Bromo-2-methoxy-phenyl)-N*4*-(4-bromo-phenyl)-pyrimidine-2,4-diamine]: the IC50 worked out at 36 nM.

Consider `Cc1ccc(Br)cc1-c1cc(Nc2ccc(CCCCO)cc2)nc(N)n1` [Example 101, 4-{4-[2-Amino-6-(5-bromo-2-methyl-phenyl)-pyrimidin4-ylamino]-phenyl}-butan-1-ol], for which the IC50 turned out to be 290 nM.

For the compound `Cc1ccc(Br)cc1-c1cc(Nc2ccc(Br)cc2)nc(N)n1` [Example 85, 6-(5-Bromo-2-methyl-phenyl)-N*4*-(4-bromo-phenyl)-pyrimidine-2,4-diamine], the IC50 was found to be 18 nM.

Take `CCc1ccc(Cl)cc1-c1cc(Nc2ccc(C(F)(F)F)cc2)nc(N)n1` [Example 164, 6-(5-Chloro-2-ethyl-phenyl)-N*4*-(4-trifluoromethyl-phenyl)-pyrimidine-2,4-diamine]: the IC50 was found to be 670 nM.

As to `CCOc1ccc(Cl)cc1-c1cc(Nc2ccc(C(F)(F)F)cc2)nc(N)n1` [Example 56, 6-(5-Chloro-2-ethoxy-phenyl)-N*4*-(4-trifluoromethyl-phenyl)-pyrimidine-2,4-diamine], the IC50 came out at 70 nM.

In the case of `Cc1nc(Nc2ccc(Cl)cc2)cc(-c2cc(Cl)ccc2C)n1` [Example 42, [6-(5-Chloro-2-methyl-phenyl)-2-methyl-pyrimidin-4-yl]-(4-chloro-phenyl)-amine], the IC50 worked out at 10 nM.
